Data from PubChem BioAssay (NCI).
Where “and” joins values, the source holds several entries; their conditions need not be identical. Identical values can stand only once.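 Each compound was tested at five concentrations against cells in 96-well plates for 48 hours. The concentration for 50% growth inhibition is given as GI50. TGI is the concentration that stops growth completely.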

Key:
Experiment in all cases: NCI-60 cell line screen, 48 h
HOP-62 NSCLC = system: HOP-62 NSCLC
SNB-19 CNS = system: SNB-19 CNS
ACHN renal = system: ACHN renal
A549 NSCLC = system: A549 NSCLC
CAKI-1 renal = system: CAKI-1 renal
HCT-116 colon = system: HCT-116 colon
HT29 colon = system: HT29 colon
COLO 205 colon = system: COLO 205 colon
SK-OV-3 ovarian = system: SK-OV-3 ovarian
DU-145 prostate = system: DU-145 prostate

Compound	GI50 (HOP-62 NSCLC) [µM]	TGI (HOP-62 NSCLC)	GI50 (SNB-19 CNS)	TGI (SNB-19 CNS)	GI50 (ACHN renal)	TGI (ACHN renal)	GI50 (A549 NSCLC)	TGI (A549 NSCLC)	GI50 (CAKI-1 renal) [µM]	TGI (CAKI-1 renal)	GI50 (HCT-116 colon) [µM]	TGI (HCT-116 colon)	GI50 (HT29 colon)	TGI (HT29 colon)	GI50 (COLO 205 colon)	TGI (COLO 205 colon)	GI50 (SK-OV-3 ovarian) [µM]	TGI (SK-OV-3 ovarian)	GI50 (DU-145 prostate)	TGI (DU-145 prostate)
COC1CCC(OC)C(c2nc3sccn3c2/C=N/N=C(N)N)C1 (stereo unspecified)	17.2	42.7 µM	33.8 µM	> 96.4 µM	> 100 µM	> 100 µM	47 µM	> 100 µM	> 10.5	> 82.5 µM	4.9	37.7 µM	2.59 µM	> 8.71 µM	25.3 µM	> 63.7 µM	47.1	> 100 µM	45.1 µM	> 80.2 µM
C=C(CN1CCN(c2ccccn2)CC1)c1ccc(C(=O)Nc2ccccc2N)cc1	1.32	> 50 µM	4.87 µM	29.7 µM	1.5 µM	> 50 µM	2.4 µM	37.3 µM	1.19	5.03 µM	2.5	32.1 µM			1.71 µM	5.74 µM	1.3	4.44 µM	2.52 µM	18.5 µM
Cc1c(-c2ccc(-c3ccccc3F)cc2)nc2ccc(F)cc2c1C(=O)O	0.5	35 µM and 199 µM	0.864 µM and 1.73 µM	164 µM and 513 µM	0.617 µM and 1.67 µM	181 µM and 492 µM	0.384 µM and 0.679 µM	78 µM and 99.3 µM and 149 µM	3.34	105 µM and 109 µM	0.5	78.7 µM and 124 µM	0.639 µM and 0.5 µM	142 µM and 235 µM	17.4 µM and 3.81 µM	97.7 µM and 234 µM	> 41.2	86.5 µM and 603 µM	0.867 µM and 1.18 µM	119 µM and 343 µM
Fc1ccc(-c2ncn(C3CCNCC3)c2-c2ccnc(Oc3ccc(Cl)cc3)n2)cc1	3.7	7.46 µM	6.57 µM	> 18.7 µM	4.19 µM	10.6 µM	5.23 µM	12.8 µM	5.49	> 16.7 µM	3.97	7.65 µM	3.25 µM	6.68 µM	3.76 µM	7.31 µM	3.88	8.12 µM	6.37 µM	> 15.8 µM
CCOC(=O)C(Cc1cc(OC)c(CC(C(=O)OCC)C(=O)OCC)cc1OC)C(=O)OCC		> 100 µM		> 100 µM		> 100 µM		> 100 µM		> 100 µM		> 100 µM		> 100 µM		> 100 µM		> 100 µM		> 100 µM
CCOC1=C/C(=N\Nc2ccc([N+](=O)[O-])cc2)CCC1		> 100 µM		> 100 µM		34.8 µM		> 100 µM		> 100 µM		> 100 µM		67.9 µM		51.3 µM		> 100 µM		> 100 µM
COc1ccc(-c2cn3ccnc3c(-c3ccc(Cl)cc3)n2)cc1	16.3	> 100 µM	14.4 µM	> 100 µM	10.5 µM	47 µM	7.49 µM	99.3 µM	2.9	11 µM	> 100	> 100 µM	6.66 µM	> 100 µM	5.49 µM	> 100 µM	20.7	> 100 µM	11.7 µM	> 100 µM
C=C1C(=O)O[C@@H]2C[C@@H](C)[C@@H]3C=CC(=O)[C@@]3(C)[C@@H](OC(=O)CCCC(=O)O[C@H]3[C@@H]4C(=C)C(=O)O[C@@H]4C[C@@H](C)[C@@H]4C=CC(=O)[C@]43C)[C@H]12		2.61 µM		2.56 µM		0.11 µM		6.09 µM		0.187 µM		0.03 µM		0.152 µM		0.111 µM		3.8 µM		0.957 µM
CC(C)(O)c1cc(Nc2cc(Oc3cn(C4CC4)nc3C3CCOCC3)ccn2)ccn1	> 100	> 100 µM	> 100 µM	> 100 µM	> 100 µM	> 100 µM	> 100 µM	> 100 µM	> 100	> 100 µM	36.2	> 100 µM	68 µM	> 100 µM	60.9 µM	> 100 µM	> 100	> 100 µM	> 100 µM	> 100 µM
CC(C)C(Br)C(=O)NCC(=O)O (stereo unspecified)		> 100 µM		> 100 µM		> 100 µM		> 100 µM		> 100 µM		> 100 µM		> 100 µM		> 100 µM		> 100 µM		> 100 µM
OC(Cc1cccc2ccccc12)CN1CCC(c2ccccc2)CC1 (stereo unspecified)		30.2 µM		26.3 µM		31.7 µM		29.9 µM		24.5 µM		28.7 µM		25.8 µM		25.6 µM		31.3 µM		31.9 µM
Cc1cc(C)nc(NC(=O)COc2ccc(Cl)cc2)c1		> 100 µM		> 100 µM		> 100 µM		> 100 µM		> 100 µM		> 100 µM		> 100 µM		> 100 µM		> 100 µM		> 100 µM
COC(=O)c1c(C(=O)O)c(-c2ccccc2)c(-c2ccccc2)c(-c2ccccc2)c1-c1ccccc1	> 100	> 100 µM	23.1 µM	> 100 µM	> 100 µM	> 100 µM	> 100 µM	> 100 µM	> 100	> 100 µM	77.9	> 100 µM	> 100 µM	> 100 µM	> 100 µM	> 100 µM	> 100	> 100 µM	> 100 µM	> 100 µM
Cn1cc(-c2csc(-c3ccc(Cl)cc3)n2)c2cccnc21	17.2	32.4 µM	13.8 µM	30.2 µM	14.1 µM	29.2 µM	17.6 µM	46.4 µM	6.99	25.6 µM	12.8	25.4 µM	13.2 µM	25.9 µM	13.7 µM	26.6 µM	15.9	39.2 µM	15.3 µM	28.9 µM
CC(=O)/C(=N\N=C(N)N)c1ccccc1		> 100 µM		> 100 µM		> 100 µM		> 100 µM		> 100 µM		> 100 µM		> 100 µM		> 100 µM		> 100 µM		> 100 µM
N#C/C(=C/C=C/c1cccc(Cl)c1)S(=O)c1ccccc1 (stereo unspecified)	0.326	1.13 µM	0.684 µM	2.52 µM	0.34 µM	1.29 µM	1.21 µM	3.12 µM	0.283	1.08 µM	0.241	0.642 µM			0.386 µM	1.31 µM	2.21	10.2 µM	0.393 µM	1.56 µM
